Columns and labels:
MMP-9 = biological target: T1, MMP-9 (Homo sapiens, UniProt P14780); assay: MMP-9 Colorimetric Drug Discovery Kit (Biomol): MMP-9 activity reduction by dressings; assay type: biochemical; conditions: compared to control samples with no MMP-9 inhibitor activity
T1 construct: purchased Biomol
From the text: A National Diagnostics Hydrogen Peroxide Assay Kit was used to evaluate the antioxidant properties of foam pads and the formulated coated foam pads containing alpha-lipoic acid. Foam pads coated only with gelatin were used as controls. FIG. 7 is a graph showing the percentage of hydrogen peroxide reduction due to reaction with alpha-lipoic acid. An MMP-9 Colorimetric Drug Discovery Kit (Biomol) was used to evaluate the MMP inhibiting/inactivating ability of the formulated foam pads containing alpha-lipoic acid/gelatin (ALA) and gelatin alone (GF GEL). The controls were uncoated foam pads and known potent MMP inactivating drug, NNGH (C13H20N2O5S, available from Enzo® Life Sciences). […] FIG. 9 is a graph showing the release of alpha-lipoic acid from the coating on the foam pads. The coating delivers approximately 70% of the total alpha-lipoic acid within the first day, while the remaining alpha-lipoic acid is released during the next 2-3 days.
Coated polyurethane foam (GranuFoam®) scaffolds described above in Examples 1-2 were further assayed for their ability to reduce MMP activity as compared to non-coated collagen based scaffold such as the Biostep™ and Promogran™ products.

[1] = Release of alpha-lipoic acid from the coating on foam pads; assay type: physicochemical; conditions: gelatin coating on foam pads (FIG. 9)
From the text: Polyurethane open-cell reticulated foam pads were selected as the scaffold 140 and were immersed in a solution containing 1.5 wt % of alpha-lipoic acid and 4.5 wt % 225-bloom beef gelatin (and, where applicable, 0.3% EDTA). Gelatin was used as a biocompatible binding agent with good oxygen barrier and sustained release properties for alpha-lipoic acid as well as for its ability to act as a sacrificial substrate for surrounding gelatinases. Alpha-lipoic acid was pre-dissolved in ethanol and then mixed into the final solution. The foam pads were immersed for a sufficient amount of time to coat the pathways formed within the open-cell reticulated foam as described above with respect to the scaffold 140. After immersion, the foam pads were withdrawn, compressed to remove excess solution, and dried to a constant weight. In some cases, sodium benzoate was added to the formulation as a preservative. Dried foams comprised, by weight, 2% alpha-lipoic acid, 6% gelatin and, where applicable, 0.4% EDTA.
A National Diagnostics Hydrogen Peroxide Assay Kit was used to evaluate the antioxidant properties of foam pads and the formulated coated foam pads containing alpha-lipoic acid. Foam pads coated only with gelatin were used as controls. FIG. 7 is a graph showing the percentage of hydrogen peroxide reduction due to reaction with alpha-lipoic acid. […]

T1 sequence (P14780 107-444 limits assumed): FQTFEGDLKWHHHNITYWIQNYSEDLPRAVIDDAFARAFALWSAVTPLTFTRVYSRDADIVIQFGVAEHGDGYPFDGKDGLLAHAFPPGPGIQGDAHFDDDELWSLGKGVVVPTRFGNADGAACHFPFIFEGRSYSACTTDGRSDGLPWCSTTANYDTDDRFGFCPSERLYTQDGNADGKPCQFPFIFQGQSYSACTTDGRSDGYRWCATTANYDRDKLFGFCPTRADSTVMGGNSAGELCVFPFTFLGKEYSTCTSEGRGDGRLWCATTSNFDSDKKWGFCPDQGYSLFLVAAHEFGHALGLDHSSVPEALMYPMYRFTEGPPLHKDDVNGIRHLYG

time over which the remaining alpha-lipoic acid is released ([1]; after the first day) [days]	fraction of the total alpha-lipoic acid delivered by the coating ([1]; within the first day)	Compound	% MMP-9 activity reduction (MMP-9; Table 1 (first of two separate experiments)) [%]	% MMP-9 activity reduction (MMP-9; Table 2 (second of two separate experiments)) [%]
		COc1ccc(S(=O)(=O)N(CC(=O)NO)CC(C)C)cc1 [NNGH]	90.2	103.8
2 to 3	approximately 70%	O=C(O)CCCCC1CCSS1 (stereo not drawn) [alpha-lipoic acid]		

— patent publication US11896733B2, “Apparatuses, methods, and compositions for the treatment and prophylaxis of chronic wounds” (KCI Licensing, Inc., priority 2010, dated 2024)
